Measurements as given in ChEMBL document CHEMBL1127271, “Synthesis of 1,2,4-triazine-(2H,4H)-3,5,-dione anticoccidial agents via palladium-catalyzed cross-coupling reactions” (Bioorg Med Chem Lett, 1994).
Active and inactive are the calls of the source. The calls are words filed in the database; no cut-off is given here.

system: Eimeria tenella; assay: In vivo anti-coccidial activity determined at a dose of <16 p.p.m. (battery efficacy against Eimeria tenella); IA means Inactive; assay type: functional, organism-based

Row | Compound | Activity
1 | C=C(c1c(Cl)cc(-n2ncc(=O)[nH]c2=O)cc1Cl)C1CCCCC1 | inactive
2 | O=c1cnn(-c2ccc(I)c(C(F)(F)F)c2)c(=O)[nH]1 | inactive
3 | [1-(2,5-Dimethoxy-phenyl)-vinyl]-trimethyl-stannane | inactive
4 | C=C(c1c(Cl)cc(-n2ncc(=O)[nH]c2=O)cc1Cl)C1CCCC1 | inactive
5 | Trimethyl-(4-methyl-cyclohex-1-enyl)-stannane | inactive
6 | (1-Cyclohexyl-vinyl)-trimethyl-stannane | inactive
7 | CC1CC=C(c2c(Cl)cc(-n3ncc(=O)[nH]c3=O)cc2Cl)CC1 (centres undefined) | inactive
8 | O=C(O)c1nn(-c2ccc(I)c(C(F)(F)F)c2)c(=O)[nH]c1=O | inactive
9 | (1-Cyclopentyl-vinyl)-trimethyl-stannane | inactive
